What was measured:
Format in all cases: cell-based
[1] = system: FRα-negative MDA-MB-468 cells co-cultured with FRα-positive JEG-3; assay: Bystander activity of ADCs (mono-culture vs co-culture, flow cytometry); settings: 4 days; for Average MDA-MB-468 Viability (%) Co-culture: MDA-MB-468 co-cultured with JEG-3, 2 nM ADC; for Average MDA-MB-468 Viability (%) Co-culture / Average MDA-MB-468 Viability (%) Mono-culture: relative to untreated blank; for Average MDA-MB-468 Viability (%) Mono-culture: MDA-MB-468 mono-culture; for Average MDA-MB-468 Viability (%) Mono-culture / % Bystander Activity / bystander activity: 2 nM ADC; for % Bystander Activity: mono-culture viability compared with co-culture viability; for bystander activity: viability of MDA-MB-468 in co-culture vs mono-culture
Experimental: The ability of the humanized variant v30384 conjugated to various drug-linkers to exert a bystander killing effect on cancer cells was assessed according to the method described below. Bystander killing most commonly occurs after target-specific uptake of an ADC into an antigen-positive cell. Trafficking and degradation of the ADC results in release of active catabolite free drug, which then crosses the cell membrane of nearby cells to elicit cell death.
FRα-positive JEG-3 and FRα-negative MDA-MB-468 cells were seeded either as mono-cultures or co-cultures in a 48-well plate at 20,000 cells and 10,000 cells, respectively, in 100 μL assay media (Minimum Essential Media supplemented with 10% Fetal Bovine Serum (both from Thermo Fisher Scientific, Waltham, MA)). ADCs were diluted to 4 nM in assay media and 100 μL was added to the cell-containing plates (2 nM final ADC concentration). Cells were incubated with ADCs for 4 days under standard culturing conditions (37° C./5% C02). Following incubation, cells were dissociated, washed, and stained using a viability dye, YO—PRO®-1 (ThermoFisher Scientific, Waltham, MA), and an anti-FRα antibody, mirvetuximab (v17716), conjugated to Alexa Fluor®647, for 20 minutes at 4° C. After incubation, cells were washed in FACS buffer (phosphate buffered saline pH 7.4 (ThermoFisher Scientific, Waltham, MA) supplemented with 2% FBS), resuspended in 70 μL FACS buffer per well, and 35 μL per well were analyzed on a BD LSRFortessa™ Cell Analyzer (BD Biosciences, Franklin Lake, NJ). Dead cells were excluded by gating on YO—PRO®-1 staining. The number of JEG-3 and MDA-MB-468 cells were determined by the number of events in the Alexa Fluor®647 positive (FRα-positive) and Alexa Fluor®647 negative (FRα-negative) gates, respectively. Percent viability was calculated as the number of cells in treatment condition divided by the number of cells in the no-treatment condition.

[2] = system: MDA-MB-468 (breast cancer); assay: In vitro cytotoxicity of camptothecin analogues (CellTiter-Glo); settings: Homo sapiens, MDA-MB-468, 96 h, read-out: pIC50 MDA-MB-468 (converted)
In short: (§1)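 Cells in log-phase growth are detached and resuspended at 20,000 cells/mL, or 10,000 cells/mL for ZR-75-1. They are then added to serial analogue dilutions prepared in RPMI 1640 plus 10% FBS and incubated at 37° C for 4 d (5 d for ZR-75-1) before CellTiter-Glo readout and IC50 fitting.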

[3] = system: ZR-75-1 (breast cancer); assay: as above; settings: Homo sapiens, ZR-75-1, 120 h, read-out: pIC50 ZR-75 (converted)
In short: as §1

[4] = system: SKOV-3 (ovarian cancer); assay: as above; settings: Homo sapiens, SK-OV-3, 96 h, read-out: pIC50 SKOV-3 (converted)
In short: as §1

[5] = system: Calu-3 (lung cancer); assay: as above; settings: Homo sapiens, Calu-3, 96 h, read-out: pIC50 Calu-3 (converted)
In short: as §1

[6] = system: SK-BR-3 (breast cancer); assay: as above; settings: Homo sapiens, SK-BR-3, 96 h, read-out: pIC50 SKBR-3 (converted)
In short: as §1

v22277-MCvcPABC-MMAE: "negative controls palivizumab (anti-RSV) (v22277) conjugated to MC-GGFG-AM-DXd1 (DAR 8) and MCvcPABC-MMAE (DAR 4)"
Average MDA-MB-468 Viability (%) Co-culture [1]: 94.2%
Average MDA-MB-468 Viability (%) Mono-culture [1]: 81.3%
% Bystander Activity [1]: −12.9%

palivizumab MCvcPABC-MMAE: "ADCs comprising palivizumab (v22277) conjugated to MC-GGFG-AM-DXd1 and MCvcPABC-MMAE were included as negative controls"
bystander activity [1]: negative bystander activity

palivizumab MC-GGFG-AM-DXd1: "ADCs comprising palivizumab (v22277) conjugated to MC-GGFG-AM-DXd1 and MCvcPABC-MMAE were included as negative controls"
bystander activity [1]: negative bystander activity

v22277-MC-GGFG-AM-DXd1: "negative controls palivizumab (anti-RSV) (v22277) conjugated to MC-GGFG-AM-DXd1 (DAR 8) and MCvcPABC-MMAE (DAR 4)"
Average MDA-MB-468 Viability (%) Co-culture [1]: 101.8%
Average MDA-MB-468 Viability (%) Mono-culture [1]: 91.6%
% Bystander Activity [1]: −10.2%

CC[C@@]1(O)C(=O)OCc2c1cc1n(c2=O)Cc2c-1nc1cc(F)c(C)cc1c2CNS(=O)(=O)c1ccccc1 [Compound 125, (S)—N-((4-ethyl-8-fluoro-4-hydroxy-9-methyl-3,14-dioxo-3,4,12,14-tetrahydro-1H-pyrano[3′,4′:6,7]indolizino[1,2-b]quinolin-11-yl)methyl)benzenesulfonamide]
IC50 [2]: 3.8 nM
IC50 [3]: 1.32 nM
IC50 [4]: 7.08 nM
IC50 [5]: 2.82 nM
IC50 [6]: 1.32 nM
